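A five-concentration, 48-hour dose response in 96-well plates underlies each endpoint, interpolated linearly between surrounding concentrations. GI50 is the concentration that inhibits growth by half. At the TGI there is no net growth.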
Assays:
Assay in all cases: NCI tumour cell line growth inhibition, 48 h
SF-295 CNS = system: SF-295 CNS
CAKI-1 renal = system: CAKI-1 renal
HCT-15 colon = system: HCT-15 colon
TK-10 renal = system: TK-10 renal
ACHN renal = system: ACHN renal
HT29 colon = system: HT29 colon
HL-60(TB) leukemia = system: HL-60(TB) leukemia
LOX IMVI melanoma = system: LOX IMVI melanoma
UACC-62 melanoma = system: UACC-62 melanoma
HOP-92 NSCLC = system: HOP-92 NSCLC
SK-MEL-5 melanoma = system: SK-MEL-5 melanoma
NCI-H23 lung = system: NCI-H23 lung
CCRF-CEM leukemia = system: CCRF-CEM leukemia
MDA-MB-468 breast = system: MDA-MB-468 breast
SK-MEL-2 melanoma = system: SK-MEL-2 melanoma
M14 melanoma = system: M14 melanoma
RPMI-8226 leukemia = system: RPMI-8226 leukemia
HCT-116 colon = system: HCT-116 colon
SK-OV-3 ovarian = system: SK-OV-3 ovarian
SNB-19 CNS = system: SNB-19 CNS
SK-MEL-28 melanoma = system: SK-MEL-28 melanoma
A498 renal = system: A498 renal
786-0 renal = system: 786-0 renal
SR leukemia = system: SR leukemia
OVCAR-8 ovarian = system: OVCAR-8 ovarian
SW-620 colon = system: SW-620 colon
RXF 393 renal = system: RXF 393 renal
A549 NSCLC = system: A549 NSCLC
K-562 leukemia = system: K-562 leukemia
NCI-H522 lung = system: NCI-H522 lung
U251 CNS = system: U251 CNS
OVCAR-4 ovarian = system: OVCAR-4 ovarian
MDA-MB-435 = system: MDA-MB-435
MCF7 breast = system: MCF7 breast
EKVX NSCLC = system: EKVX NSCLC
OVCAR-3 ovarian = system: OVCAR-3 ovarian
MDA-MB-231 breast = system: MDA-MB-231 breast
UO-31 renal = system: UO-31 renal
PC-3 prostate = system: PC-3 prostate
SF-539 CNS = system: SF-539 CNS
IGROV1 ovarian = system: IGROV1 ovarian
DU-145 prostate = system: DU-145 prostate
HCC-2998 colon = system: HCC-2998 colon
NCI-H226 lung = system: NCI-H226 lung
SN12C renal = system: SN12C renal
COLO 205 colon = system: COLO 205 colon
SF-268 CNS = system: SF-268 CNS
MALME-3M melanoma = system: MALME-3M melanoma
NCI/ADR-RES ovarian = system: NCI/ADR-RES ovarian
NCI-H460 lung = system: NCI-H460 lung
HS 578T breast = system: HS 578T breast
MOLT-4 leukemia = system: MOLT-4 leukemia
KM12 colon = system: KM12 colon
HOP-62 NSCLC = system: HOP-62 NSCLC
OVCAR-5 ovarian = system: OVCAR-5 ovarian
UACC-257 melanoma = system: UACC-257 melanoma
SNB-75 CNS = system: SNB-75 CNS
BT-549 breast = system: BT-549 breast
T-47D breast = system: T-47D breast

## COc1cc(-c2nc3ccc(C)cc3[nH]2)ccc1OCc1nnc(-c2ccc(Br)cc2)o1
SF-295 CNS
  GI50: 14.9 µM
  TGI: 34.8 µM
CAKI-1 renal
  GI50: 25.5 µM
  TGI: > 100 µM
HCT-15 colon
  GI50: 12.2 µM
  TGI: 85.7 µM
TK-10 renal
  GI50: 27.6 µM
  TGI: 94.7 µM
ACHN renal
  GI50: 27.2 µM
  TGI: > 100 µM
HT29 colon
  GI50: 10.8 µM
  TGI: 53.6 µM
HL-60(TB) leukemia
  GI50: 18.6 µM
  TGI: 39 µM
LOX IMVI melanoma
  GI50: 12.1 µM
  TGI: 27.5 µM
UACC-62 melanoma
  GI50: 20.1 µM
  TGI: > 100 µM
HOP-92 NSCLC
  GI50: 15.6 µM
  TGI: > 100 µM
SK-MEL-5 melanoma
  GI50: 11.8 µM
  TGI: 34.1 µM
NCI-H23 lung
  GI50: 32 µM
  TGI: > 100 µM
CCRF-CEM leukemia
  GI50: 28.3 µM
  TGI: > 100 µM
MDA-MB-468 breast
  GI50: 14 µM
  TGI: 30.9 µM
SK-MEL-2 melanoma
  GI50: 27.7 µM
  TGI: > 100 µM
M14 melanoma
  GI50: 40.2 µM
  TGI: > 100 µM
RPMI-8226 leukemia
  GI50: 8.54 µM
  TGI: > 100 µM
HCT-116 colon
  GI50: 25.4 µM
  TGI: > 100 µM
SK-OV-3 ovarian
  GI50: 23.6 µM
  TGI: > 100 µM
SNB-19 CNS
  GI50: 52.3 µM
  TGI: > 100 µM
SK-MEL-28 melanoma
  GI50: 22.2 µM
  TGI: > 100 µM
A498 renal
  GI50: 30.3 µM
  TGI: 93.3 µM
786-0 renal
  GI50: 16.6 µM
  TGI: 45.5 µM
SR leukemia
  GI50: 10.9 µM
  TGI: 56.4 µM
OVCAR-8 ovarian
  GI50: 16.1 µM
  TGI: 45.3 µM
SW-620 colon
  GI50: 32.8 µM
  TGI: > 100 µM
RXF 393 renal
  GI50: 20.4 µM
  TGI: 59.8 µM
A549 NSCLC
  GI50: 31 µM
  TGI: > 100 µM
K-562 leukemia
  GI50: 15.4 µM
  TGI: > 100 µM
NCI-H522 lung
  GI50: 17.1 µM
  TGI: 45 µM
U251 CNS
  GI50: 15.2 µM
  TGI: 55.4 µM
OVCAR-4 ovarian
  GI50: 14.3 µM
  TGI: 38.4 µM
MDA-MB-435
  GI50: 18.7 µM
  TGI: 53.3 µM
MCF7 breast
  GI50: 4.28 µM
  TGI: 70.7 µM
EKVX NSCLC
  GI50: 18.9 µM
  TGI: > 100 µM
OVCAR-3 ovarian
  GI50: 20.5 µM
  TGI: 52.9 µM
MDA-MB-231 breast
  GI50: 14.4 µM
  TGI: 33.1 µM
UO-31 renal
  GI50: 11.1 µM
  TGI: > 100 µM
PC-3 prostate
  GI50: 40.3 µM
  TGI: > 100 µM
SF-539 CNS
  GI50: 12.6 µM
  TGI: 26.7 µM
IGROV1 ovarian
  GI50: 16.3 µM
  TGI: > 100 µM
DU-145 prostate
  GI50: 51.7 µM
  TGI: > 100 µM
HCC-2998 colon
  GI50: 26.2 µM
  TGI: > 100 µM
NCI-H226 lung
  GI50: 15.3 µM
  TGI: > 100 µM
SN12C renal
  GI50: 29.9 µM
  TGI: > 100 µM
COLO 205 colon
  GI50: 27.1 µM
  TGI: > 100 µM
SF-268 CNS
  GI50: 36.1 µM
  TGI: > 100 µM
MALME-3M melanoma
  GI50: 12.4 µM
  TGI: 28.7 µM
NCI/ADR-RES ovarian
  GI50: 19.3 µM
  TGI: > 100 µM
NCI-H460 lung
  GI50: 27.8 µM
  TGI: > 100 µM
HS 578T breast
  GI50: 12.5 µM
  TGI: 45.4 µM
MOLT-4 leukemia
  GI50: 6.86 µM
  TGI: > 100 µM
KM12 colon
  GI50: 55.1 µM
  TGI: > 100 µM
HOP-62 NSCLC
  GI50: 28.4 µM
  TGI: > 100 µM
OVCAR-5 ovarian
  GI50: 57.2 µM
  TGI: > 100 µM
UACC-257 melanoma
  GI50: 17.3 µM
  TGI: 46.6 µM
SNB-75 CNS
  GI50: 12.2 µM
  TGI: 56.8 µM
BT-549 breast
  GI50: 21.3 µM
  TGI: 48.8 µM
T-47D breast
  GI50: 7.33 µM
  TGI: 34.4 µM
